The results in this text go back to patent publication US20240254129A1, “HETEROCYCLIC COMPOUNDS AND USES THEREOF” (Kumquat Biosciences Inc., priority 2021, published 2024).

The target in assay [1] is GST-tagged K-Ras mutant / His-tagged hSOS1 (Homo sapiens, UniProt P01116). The experiment in a line: HTRF assay, K-Ras mutant / SOS1 interaction. As to conditions: compound nos. 401-703; read-out: IC50 against mutant Kras. The class given is binding. An outline of the steps: (§1)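 Buffer ~5 mM HEPES pH 7.4, ~150 mM NaCl, ~1 mM DTT, 0.05% BSA, 0.0025% Igepal. Cpd in DMSO + Ras/donor mix + SOS1/acceptor mix; ≥10 min; HTRF 665/620 ratio → IC50.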

The next assay has as its target T1, wildtype Kras / hSOS1 (Homo sapiens, UniProt P01116).
T1 construct: made in house; host or cells: E. coli BL21 (DE3)
The experiment in a line: HTRF assay, wildtype Kras / SOS1 interaction. The class given is binding. As to conditions: compound nos. 401-703; read-out: IC50 against wildtype Kras. The procedure, abridged: as §1

pIC50: −log10 of the molar value.

T1 sequence (P01116 1-188 isoform P01116-2): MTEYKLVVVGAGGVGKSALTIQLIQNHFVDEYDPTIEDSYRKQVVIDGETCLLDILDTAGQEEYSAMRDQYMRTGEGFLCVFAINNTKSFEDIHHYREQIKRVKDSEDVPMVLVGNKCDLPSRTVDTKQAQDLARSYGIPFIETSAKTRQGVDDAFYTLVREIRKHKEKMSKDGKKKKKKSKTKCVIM
GST-tagged K-Ras mutant / His-tagged hSOS1, sequence (P01116 whole entry G12D, form open): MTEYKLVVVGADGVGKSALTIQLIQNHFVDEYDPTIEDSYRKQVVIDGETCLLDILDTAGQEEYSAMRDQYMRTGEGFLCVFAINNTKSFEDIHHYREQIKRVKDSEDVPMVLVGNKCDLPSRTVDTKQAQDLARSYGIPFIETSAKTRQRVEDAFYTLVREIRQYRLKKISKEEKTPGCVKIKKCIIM

As for `OC1Cc2ccccc2N(c2ccc3c(N4CC5CCC(C4)N5)nc(OCC45CCCN4CCC5)nc3c2F)C1` (stereo not drawn) [Compound 538, 1-(4-(3,8-diazabicyclo-[3.2.1]octan-3-yl)-8-fluoro-2-((tetrahydro-1H-pyrrol-izin-7a(5H)-yl)methoxy)-quinazolin-7-yl)-1,2,3,4-tetrahydro-quinolin-3-ol], the pIC50 (in assay [1]; at wildtype Kras / hSOS1) was below 6.30 each time.

Regarding `Fc1c(-c2cccc3ncccc23)c(Cl)cc2c(N3CCCCCC3)nc(OCC34CCCN3CCC4)nc12` [Compound 540, 4-(azepan-1-yl)-6-chloro-8-fluoro-7-(quinolin-5-yl)-2-((tetrahydro-1H-pyrrolizin-7a(5H)-yl)methoxy)quin-azoline], the negative-log IC50 (pIC50) (in assay [1]; at wildtype Kras / hSOS1) was below 6.30 throughout.

Consider `Nc1nccc2c(-c3c(Cl)cc4c(N5CC6CCC(C5)N6)nc(OCC56CCCN5CCC6)nc4c3F)cccc12` [Compound 541, 5-(4-(3,8-diazabicyclo-[3.2.1]octan-3-yl)-6-chloro-8-fluoro-2-((tetrahydro-1H-pyrrolizin-7a(5H)-yl)meth-oxy)quinazolin-7-yl)iso-quinolin-1-amine], for which the pIC50 (in assay [1]; at wildtype Kras / hSOS1) was below 6.30 in each case.

`Nc1nc2c(-c3c(Cl)cc4c(N5CC6CCC(C5)N6)nc(OCC56CCCN5CCC6)nc4c3F)cc(F)cc2s1` [Compound 542, 4-(4-(3,8-diazabicyclo-[3.2.1]octan-3-yl)-6-chloro-8-fluoro-2-((tetrahydro-1H-pyrrolizin-7a(5H)-yl)meth-oxy)quinazolin-7-yl)-6-fluorobenzo[d]thiazol-2-amine]: the pIC50 is above 6.30 in assay [1] and below 6.30 on wildtype Kras / hSOS1.

Turning to `Nc1nc2c(-c3c(Cl)cc4c(N5CCCCC(N)C5)nc(OC[C@@]56CCCN5C[C@H](F)C6)nc4c3F)ccc(F)c2s1` (stereo partly drawn) [Compound 543, 4-(4-(3-aminoazepan-1-yl)-6-chloro-8-fluoro-2-(((2R,7aS)-2-fluorotetra-hydro-1H-pyrrolizin-7a(5H)-yl)methoxy)quinazolin-7-yl)-7-fluorobenzo[d]thiazol-2-amine], the pIC50 in assay [1] is above 6.30; at wildtype Kras / hSOS1, below 6.30.

For the compound `COc1nc2c(N3CC4CCC(C3)N4)nc(OCC34CCCN3CCC4)nc2cc1-c1cccc2cccc(Cl)c12` [Compound 544, 4-(3,8-diazabicyclo[3.2.1]-octan-3-yl)-7-(8-chloronaph-thalen-1-yl)-6-methoxy-2-((tetrahydro-1H-pyrrolizin-7a(5H)-yl)methoxy)pyrido-[3,2-d]pyrimidine], the pIC50 (in assay [1]; at wildtype Kras / hSOS1) was below 6.30 in each case.

For the compound `COc1nc2c(N3C[C@H]4CC[C@@H](C3)N4)nc(OCC34CCCN3CCC4)nc2cc1-c1cc(O)cc2ccccc12` [Compound 545, 4-(4-((1R,5S)-3,8-diazabicyclo[3.2.1]octan-3-yl)-6-methoxy-2-((tetrahydro-1H-pyrrolizin-7a(5H)-yl)methoxy)pyrido[3,2-d]pyrimidin-7-yl)naphthalen-2-ol], the pIC50 (in assay [1]; at wildtype Kras / hSOS1) was below 6.30 each time.

`Cc1ccc2oc(N)nc2c1-c1c(Cl)cc2c(N3CC4CCC(C3)N4)nc(OC[C@@]34CCCN3C[C@H](F)C4)nc2c1F` [Compound 546, 4-(4-(3,8-diazabicyclo-[3.2.1]octan-3-yl)-6-chloro-8-fluoro-2-(((2R,7aS)-2-fluorotetrahydro-1H-pyrrol-izin-7a(5H)-yl)methoxy)-quinazolin-7-yl)-5-methyl-benzo[d]oxazol-2-amine]: the pIC50 in assay [1] is above 6.30; on wildtype Kras / hSOS1 it was below 6.30.

As to `Nc1nc2c(-c3c(Cl)cc4c(N5CC6COCC(C5)N6)nc(OC[C@@]56CCCN5C[C@H](F)C6)nc4c3F)ccc(F)c2s1` [Compound 547, 4-(4-(3-oxa-7,9-diaza-bicyclo[3.3.1]nonan-7-yl)-6-chloro-8-fluoro-2-(((2R,7aS)-2-fluorotetra-hydro-1H-pyrrolizin-7a(5H)-yl)methoxy)quinazolin-7-yl)-7-fluorobenzo[d]thiazol-2-amine], the values for the pIC50 (in assay [1]; at wildtype Kras / hSOS1) were above 6.30 and below 6.30, respectively.

Regarding `Fc1c(N2CCCCc3ccccc32)ccc2c(N3CCCCCC3)nc(OCC34CCCN3CCC4)nc12` [Compound 548, 1-(4-(azepan-1-yl)-8-fluoro-2-((tetrahydro-1H-pyrrol-izin-7a(5H)-yl)methoxy)-quinazolin-7-yl)-2,3,4,5-tetrahydro-1H-benzo[b]-azepine], the pIC50 (in assay [1]; on wildtype Kras / hSOS1) was below 6.30 throughout.

For the compound `Cc1ccc2cnn(CC#N)c2c1-c1c(Cl)cc2c(N3CC4CCC(C3)N4)nc(OC[C@@]34CCCN3C[C@H](F)C4)nc2c1F` [Compound 549, 2-(7-(4-(3,8-diazabicyclo-[3.2.1]octan-3-yl)-6-chloro-8-fluoro-2-(((2R,7aS)-2-fluorotetrahydro-1H-pyrrol-izin-7a(5H)-yl)methoxy)-quinazolin-7-yl)-6-methyl-1H-indazol-1-yl)acetonitrile], the pIC50 (in assay [1]; on wildtype Kras / hSOS1) was below 6.30 in each case.

As to `CC1CCCCN(c2nc(OC[C@@H]3CCCN3C)nc3c(F)c(-c4cccc5sc(N)nc45)c(Cl)cc23)C1` (stereo partly drawn) [Compound 550, 4-(6-chloro-8-fluoro-4-(3-methylazepan-1-yl)-2-(((S)-1-methylpyrrolidin-2-yl)-methoxy)quinazolin-7-yl)-benzo[d]thiazol-2-amine], the pIC50 is above 6.30 in assay [1] and below 6.30 on wildtype Kras / hSOS1.

Regarding `N#CN1CCN(c2nc(OCC34CCCN3CCC4)nc3c(F)c(-c4ccc(F)c5sc(N)nc45)c(Cl)cc23)CC(F)(F)C1` [Compound 551, 4-(7-(2-amino-7-fluorobenzo[d]thiazol-4-yl)-6-chloro-8-fluoro-2-((tetrahydro-1H-pyrrolizin-7a(5H)-yl)methoxy)quinazolin-4-yl)-6,6-difluoro-1,4-diazepane-1-carbonitrile], the pIC50 in assay [1] is above 6.30; at wildtype Kras / hSOS1 it was below 6.30.

As to `N#Cc1c(N)sc2cccc(-c3c(Cl)cc4c(N5CC6CCC(C5)N6)nc(OC[C@@]56CCCN5C[C@H](F)C6)nc4c3F)c12` [Compound 552, 4-(4-(3,8-diazabicyclo-[3.2.1]octan-3-yl)-6-chloro-8-fluoro-2-(((2R,7aS)-2-fluorotetrahydro-1H-pyrrol-izin-7a(5H)-yl)methoxy)-quinazolin-7-yl)-2-amino-benzo[b]thiophene-3-carbonitrile], the negative logarithm of the IC50 (pIC50) is above 6.30 in assay [1] and below 6.30 on wildtype Kras / hSOS1.

For `Nc1nc2c(-c3c(Cl)cc4c(N5CC6CCC(C5)N6)nc(OCC5(CN6CCCC6)CC5)nc4c3F)ccc(F)c2s1` [Compound 553, 4-(4-(3,8-diazabicyclo-[3.2.1]-octan-3-yl)-6-chloro-8-fluoro-2-((1-(pyrrolidin-1-ylmethyl)cyclopropyl)meth-oxy)quinazolin-7-yl)-7-fluorobenzo[d]thiazol-2-amine], the pIC50 was above 6.30 in assay [1] and below 6.30 at wildtype Kras / hSOS1.

On to `CN1CCC[C@H]1COc1nc(N2CCCC(NC3CNC3)CC2)c2cc(Cl)c(-c3cccc4sc(N)nc34)c(F)c2n1` (stereo partly drawn) [Compound 554, 4-(4-(4-(azetidin-3-yl-amino)azepan-1-yl)-6-chloro-8-fluoro-2-(((S)-1-methylpyrrolidin-2-yl)-methoxy)quinazolin-7-yl)-benzo[d]thiazol-2-amine], for which the pIC50 (in assay [1]; on wildtype Kras / hSOS1) was below 6.30 throughout.

`Nc1nc2c(-c3c(Cl)cc4c(N5CCNCC(F)(F)C5)nc(OCCCN5CCCC5)nc4c3F)ccc(F)c2s1` [Compound 555, 4-(6-chloro-4-(6,6-difluoro-1,4-diazepan-1-yl)-8-fluoro-2-(3-(pyrrolidin-1-yl)-propoxy)quinazolin-7-yl)-7-fluorobenzo[d]thiazol-2-amine]: the pIC50 is above 6.30 in assay [1] and below 6.30 on wildtype Kras / hSOS1.

Regarding `Nc1nc2c(-c3c(Cl)cc4c(N5CC6CNC(C6)C5)nc(OC[C@@]56CCCN5C[C@H](F)C6)nc4c3F)ccc(F)c2s1` (stereo partly drawn) [Compound 556, 4-(4-(3,6-diazabicyclo-[3.2.1]octan-3-yl)-6-chloro-8-fluoro-2-(((2R,7aS)-2-fluorotetrahydro-1H-pyrrol-izin-7a(5H)-yl)methoxy)-quinazolin-7-yl)-7-fluoro-benzo[d]thiazol-2-amine], the pIC50 is above 6.30 in assay [1] and below 6.30 on wildtype Kras / hSOS1.

For `N#Cc1c(N)sc2c(F)ccc(-c3c(Cl)cc4c(N5CCCNCC5)nc(OC[C@@]56CCCN5C[C@H](F)C6)nc4c3F)c12` [Compound 557, 2-amino-4-(6-chloro-4-(1,4-diazepan-1-yl)-8-fluoro-2-(((2R,7aS)-2-fluorotetra-hydro-1H-pyrrolizin-7a(5H)-yl)methoxy)quinazolin-7-yl)-7-fluorobenzo[b]thio-phene-3-carbonitrile], the negative logarithm of the IC50 (pIC50) in assay [1] was above 6.30; at wildtype Kras / hSOS1, below 6.30.

Turning to `N#Cc1ccc2ccccc2c1-c1c(Cl)cc2c(N3CC4CCC(C3)N4)nc(OC[C@@]34CCCN3C[C@H](F)C4)nc2c1F` [Compound 558, 1-(4-(3,8-diazabicyclo-[3.2.1]octan-3-yl)-6-chloro-8-fluoro-2-(((2R,7aS)-2-fluorotetrahydro-1H-pyrrol-izin-7a(5H)-yl)methoxy)-quinazolin-7-yl)-2-naph-thonitrile], the pIC50 (in assay [1]; on wildtype Kras / hSOS1) was below 6.30 throughout.

For `CN1CCC[C@H]1COc1nc(N2CCCC(NC3CC3)CC2)c2cc(Cl)c(-c3cccc4sc(N)nc34)c(F)c2n1` (stereo partly drawn) [Compound 559, 4-(6-chloro-4-(4-(cyclo-propylamino)azepan-1-yl)-8-fluoro-2-(((S)-1-methyl-pyrrolidin-2-yl)methoxy)-quinazolin-7-yl)benzo[d]-thiazol-2-amine], the negative logarithm of the IC50 (pIC50) (in assay [1]; at wildtype Kras / hSOS1) was below 6.30 throughout.
